Data reported in the NIST ThermoML archive (doi:10.1016/j.fluid.2009.06.002).
Numbers after ± are expanded uncertainties.

Settings: Liquid; for mass density / viscosity: 298.15 K; for mass density: 101.33 kPa; for vapor or sublimation pressure: Twin ebulliometer

C1C[C@@H]2[C@H]3CC[C@H](C3)[C@@H]2C1 [exo-tetrahydrodicyclopentadiene]
mass density: 931.4 ± 2 kg/m3 | viscosity: 2.739 ± 0.056 mPa·s | vapor or sublimation pressure (393 K): 14.8 ± 0.9 kPa | vapor or sublimation pressure (397.64 K): 17.5 ± 1.1 kPa | vapor or sublimation pressure (402.29 K): 20.7 ± 1.2 kPa | vapor or sublimation pressure (406.93 K): 24.2 ± 1.5 kPa | vapor or sublimation pressure (411.57 K): 28.2 ± 1.7 kPa | vapor or sublimation pressure (416.21 K): 32.7 ± 2 kPa | vapor or sublimation pressure (420.86 K): 37.8 ± 2.3 kPa | vapor or sublimation pressure (425.5 K): 43.3 ± 2.6 kPa | vapor or sublimation pressure (430.14 K): 49.5 ± 3 kPa | vapor or sublimation pressure (434.79 K): 56.3 ± 3.4 kPa | vapor or sublimation pressure (439.43 K): 63.8 ± 3.8 kPa | vapor or sublimation pressure (444.07 K): 72 ± 4.3 kPa | vapor or sublimation pressure (448.71 K): 80.9 ± 4.9 kPa | vapor or sublimation pressure (453.36 K): 90.6 ± 5.4 kPa | vapor or sublimation pressure (458 K): 101.1 ± 6.1 kPa

COC(=O)OC [dimethyl carbonate]
mass density: 1063.4 ± 0.1 kg/m3 | viscosity: 0.578 ± 0.016 mPa·s | vapor or sublimation pressure (310 K): 12.17 ± 0.17 kPa | vapor or sublimation pressure (313.86 K): 14.7 ± 0.21 kPa | vapor or sublimation pressure (317.71 K): 17.65 ± 0.25 kPa | vapor or sublimation pressure (321.57 K): 21.05 ± 0.3 kPa | vapor or sublimation pressure (325.43 K): 24.96 ± 0.35 kPa | vapor or sublimation pressure (329.29 K): 29.43 ± 0.41 kPa | vapor or sublimation pressure (333.14 K): 34.51 ± 0.48 kPa | vapor or sublimation pressure (337 K): 40.26 ± 0.56 kPa | vapor or sublimation pressure (340.86 K): 46.73 ± 0.66 kPa | vapor or sublimation pressure (344.71 K): 53.99 ± 0.76 kPa | vapor or sublimation pressure (348.57 K): 62.11 ± 0.87 kPa | vapor or sublimation pressure (352.43 K): 71.13 ± 1 kPa | vapor or sublimation pressure (356.29 K): 81.14 ± 1.1 kPa | vapor or sublimation pressure (360.14 K): 92.2 ± 1.3 kPa | vapor or sublimation pressure (364 K): 104.4 ± 1.5 kPa
